According to patent US10450314B2, “Pteridine derivatives as modulators of ROR gamma” (Boehringer Ingelheim International GmbH, priority 2015, dated 2019):

How the values were obtained:
RORγ = target: T1, RORγ (Homo sapiens, UniProt P51449); experiment: RORγ Reporter Gene Assay (RGA), luciferase transactivation in transiently transfected HEK 293 cells; format: cell-based; conditions: HEK 293 cells cotransfected with pGL4.3 luc2P/GAL4UAS and pBIND Gal4DBD hRORC LBD; 20-24 h incubation
T1 construct: expressed in transfected cells; host or cells: HEK 293 cells, transiently cotransfected with pGL4.3 luc2P/GAL4UAS/Hygro reporter
T1 sequence (P51449 269-508 limits assumed): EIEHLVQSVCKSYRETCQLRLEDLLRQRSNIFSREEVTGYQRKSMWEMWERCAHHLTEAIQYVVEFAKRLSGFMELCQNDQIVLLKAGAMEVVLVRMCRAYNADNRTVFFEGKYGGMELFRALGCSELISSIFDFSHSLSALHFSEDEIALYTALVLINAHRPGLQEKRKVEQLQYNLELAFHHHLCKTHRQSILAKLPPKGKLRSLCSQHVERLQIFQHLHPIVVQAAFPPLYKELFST
Experimental: Reporter Gene Assay (RGA)
A nuclear receptor transactivation assay is performed to quantitate the ability of test compounds to inhibit RORγ transactivation of a luciferase reporter. A similar assay is described in: Khan et al., Bioorganic & Medicinal Chemistry Letters 23 (2013), 532-536. The system uses transiently transfected HEK 293 cells cotransfected with two plasmids (pGL4.3, luc2P/GAL4UAS/Hygro, and pBIND, Gal4DBD hRORC LBD1-3). The positive control is co-transiently transfected with both plasmids, and the negative control contains the pGL4.3 promoter sequence. Assays are assembled in 384 well plates where transiently transfected cells and test compound at varying concentrations are incubated for 20-24 h. The next day, assays plates are taken out and equilibrated at RT for 20-30 minutes. Bright-Glo™ Luciferase Assay System is used to detect Luciferase production. After addition of Bright GLO detection reagent, the plates are incubated at RT for 20 minutes. The plates are read on an Envision plate reader to measure luminescence signal. The RLU signal is converted to POC relative to control and blank wells.
Compound Dilution Buffer:
Bright Glo Luciferase Assay System: Promega #E2620
Thaw lysis buffer provided in kit, add 100 mL lysis buffer to substrate powder.

[1] = Human liver microsome (HLM) metabolic stability assay; format: in vitro ADME; conditions: human liver microsomes, 1 uM compound, 37° C., 60 min; % hepatic blood flow
Experimental: Assessment of Metabolic Stability
The 5 time point, high-throughput human liver microsome (HLM) metabolic stability assay is designed to determine in vitro compound metabolism. Compounds are incubated with HLMs at a concentration of 1 uM, at 37° C., for a total of 60 min. The percent of compound remaining at 5, 15, 30, and 60 min is used to calculate the t1/2 (min), CLint (mL/min/kg), CLh (mL/min/kg), and % Qh. The assay is based on a 96-well format and can accommodate up to 92 compounds per plate (n=1).
Using the 96-well multi-channel head, the Biomek FX, equipped with a Peltier heating block/shaker, is programmed to accomplish the following steps: • 1. Pipette 175 uL of 1.15 mg/mL microsomes into each of the 96 conical inserts (Analytical Sales and Products, catalog number 96PL05) that fit into the plate of the Peltier heating block/shaker (the incubation plate) • 2. Add 5 uL of compounds from the assay plate to the microsomes and shake the mixture at 600 rpm at 42.1° C. for 10 min (a setting of 42.1° C. on the Peltier is required for the samples to incubate at 37° C.) • 3. After 10 min, prompt the user to add the NADPH plate to the deck and add 20 uL from the NADPH plate to the incubation plate to start the reaction • 4. Add 215 uL of 100%, cold acetonitrile containing an internal standard(s) to a 0 minute, 5 minute, 15 minute, 30 minute, and 60 minute “quench” plate • 5. At 0 min, 5 min, 15 min, 30 min, and 60 min into the incubation, aspirate 12 uL from the incubation mixture and add it to the quench solution to stop the reaction • 6. Add 185 uL HPLC grade water to each well of the 0, 5, 15, 30 and 60 minute quench plates to dilute compounds to the appropriate concentration for the mass spectrometer
After all time points are collected, the quench plates are sealed with 96-well pierceable plate mats or heat sealing foil and centrifuged at 3000 rpm for 15 min to pellet the microsomes.
The plates are analyzed using LC/MS/MS with electron spray ionization (ESI) and the previously determined MRM transitions. The LC method includes the following parameters:
Using an Excel template in Activitybase, the peak areas corresponding to 5, 15, 30 and 60 min are compared to the peak area at 0 min to calculate the percent of remaining compound using the following equation:
Percent compound remaining=(AUC at Time t min/AUC at Time 0 min)×100 where t=0, 5, 15, 30 or 60 min.
Time (min) is plotted against the natural logarithm (Ln) of the percent compound remaining to determine the slope. The slope is used to calculate t1/2 (min) using the equation, t1/2=0.693/slope.
Clint, Intrinsic Clearance

| Compound | IC50 (RORγ) [nM] | HLM (% Qh) [1] [% Qh] |
| --- | --- | --- |
| CCS(=O)(=O)c1ccc(CNc2nc3c(C)nc(-c4c(OC)ncnc4C4CC4)nc3n([C@@H](C)C3CC3)c2=O)nc1 [Example 71] | 65 | 35 |
| CC[C@H](C)n1c(=O)c(NCc2ccc(S(C)(=O)=O)nc2)nc2c(C)nc(-c3c(OC)ncnc3C3CC3)nc21 [Example 11] | 135 | 26 |
| COc1ncnc(C2CC2)c1-c1nc(C)c2nc(NCc3ccc(S(C)(=O)=O)nc3)c(=O)n([C@@H](C)C(F)(F)F)c2n1 [Example 19] | 165 | 62 |
| CC[C@H](C)n1c(=O)c(NCc2ccc(S(=O)(=O)CC)cn2)nc2c(C)nc(-c3c(C)ncnc3C3CC3)nc21 [Example 60] | 80 | <24 |
| CCS(=O)(=O)c1cnc(CNc2nc3c(C)nc(-c4c(C)ncnc4C4CC4)nc3n([C@@H](C)C(F)F)c2=O)nc1 [Example 94] | 205 | <24 |
| CC[C@@H](C)n1c(=O)c(NCc2ccc(S(C)(=O)=O)nc2)nc2c(C)nc(-c3c(C)ncnc3C3CC3)nc21 [Example 72] | 205 | <24 |
| CC[C@@H](C)n1c(=O)c(NCc2ccc(S(=O)(=O)CC)cn2)nc2c(C)nc(-c3c(OC)ncnc3C3CC3)nc21 [Example 86] | 73 | <24 |
| CC[C@H](C)n1c(=O)c(NCc2ccc(S(=O)(=O)CC)nc2)nc2c(C)nc(-c3c(OC)ncnc3C3CC3)nc21 [Example 63] | 100 | <24 |
| Cc1ncnc(C2CC2)c1-c1nc(C)c2nc(NCc3ccc(S(C)(=O)=O)cn3)c(=O)n([C@@H](C)CF)c2n1 [Example 49] | 4200 | <24 |
| Cc1ncnc(C2CC2)c1-c1nc(C)c2nc(NCc3ccc(S(C)(=O)=O)nc3)c(=O)n([C@@H](C)C3CC3)c2n1 [Example 7] | 70 | 33 |
| CC[C@H](C)n1c(=O)c(NCc2ncc(S(=O)(=O)CC)cn2)nc2c(C)nc(-c3c(C)ncnc3C3CC3)nc21 [Example 16] | 113 | <24 |
| Cc1ncnc(C2CC2)c1-c1nc(C)c2nc(NCc3ccc(S(C)(=O)=O)cn3)c(=O)n([C@@H](C)C(F)(F)F)c2n1 [Example 18] | 175 | 55 |
| Cc1ncnc(C2CC2)c1-c1nc(C)c2nc(NCc3ccc(S(N)(=O)=O)nc3)c(=O)n([C@@H](C)C(F)(F)F)c2n1 [Example 98] | 1100 | <24 |
| CC[C@@H](C)n1c(=O)c(NCc2ccc(S(=O)(=O)CC)cn2)nc2c(C)nc(-c3c(C)ncnc3C3CC3)nc21 [Example 65] | 135 | <24 |
| COc1ncnc(C2CC2)c1-c1nc(C)c2nc(NCc3ccc(S(C)(=N)=O)cc3)c(=O)n([C@@H](C)C3CC3)c2n1 (stereo partly shown) [Example 67] | 110 | <24 |
| Cc1ncnc(C2CC2)c1-c1nc(C)c2nc(NCc3ccc(S(N)(=O)=O)cn3)c(=O)n([C@@H](C)C3CC3)c2n1 [Example 61] | 185 | <24 |
| CCS(=O)(=O)c1ccc(CNc2nc3c(C)nc(-c4c(C)ncnc4C4CC4)nc3n([C@@H](C)CF)c2=O)nc1 [Example 48] | 1200 | <24 |
| CC[C@H](C)n1c(=O)c(NCc2ccc(S(C)(=O)=O)cn2)nc2c(C)nc(-c3c(OC)ncnc3C3CC3)nc21 [Example 13] | 99 | <24 |
| Cc1ncnc(C2CC2)c1-c1nc(C)c2nc(NCc3ccc(S(C)(=O)=O)cn3)c(=O)n([C@@H](C#N)C(C)C)c2n1 [Example 31] | 850 | 55 |
| CC[C@@H](C)n1c(=O)c(NCc2ccc(S(N)(=O)=O)cn2)nc2c(C)nc(-c3c(C)ncnc3C3CC3)nc21 [Example 76] | 275 | 34 |
| COc1ncnc(C2CC2)c1-c1nc(C)c2nc(NCc3ccc(S(N)(=O)=O)nc3)c(=O)n([C@@H](C)C(F)(F)F)c2n1 [Example 97] | 320 | 46 |
| CC[C@@H](C)n1c(=O)c(NCc2ccc(S(=O)(=O)CC)cn2)nc2c(CF)nc(-c3c(C)ncnc3C3CC3)nc21 [Example 53] | 160 | 33 |
| CC[C@H](C)n1c(=O)c(NCc2ccc(S(=O)(=O)CC)nc2)nc2c(C)nc(-c3c(C)ncnc3C3CC3)nc21 [Example 64] | 95 | <24 |
| CC[C@@H](C)n1c(=O)c(NCc2ccc(S(=O)(=O)CC)cn2)nc2c(COC(C)=O)nc(-c3c(C)ncnc3C3CC3)nc21 [Example 46] | 1050 | 66 |

The next lines start with the values.

| IC50 (RORγ) [nM] | HLM (% Qh) [1] [% Qh] | Compound |
| --- | --- | --- |
| 1300 | <24 | Cc1ncnc(C2CC2)c1-c1nc(C)c2nc(NCc3ccc(S(C)(=N)=O)cn3)c(=O)n([C@@H](C)C(F)(F)F)c2n1 (single isomer, unassigned) [Example 106a] |
| 390 | <24 | CCS(=N)(=O)c1ccc(CNc2nc3c(C)nc(-c4c(C)ncnc4C4CC4)nc3n([C@@H](C)C3CC3)c2=O)nc1 (single isomer, unassigned) [Example 42b] |
| 210 | <24 | Cc1ncnc(C2CC2)c1-c1nc(C)c2nc(NCc3ccc(S(C)(=N)=O)cc3)c(=O)n([C@@H](C)C3CC3)c2n1 (single isomer, unassigned) [Example 27a] |
| 640 | <24 | CCS(=N)(=O)c1ccc(CNc2nc3c(C)nc(-c4c(C)ncnc4C4CC4)nc3n([C@@H](C)C(F)(F)F)c2=O)nc1 (single isomer, unassigned) [Example 102b] |
| 260 | 41 | COc1ncnc(C2CC2)c1-c1nc(C)c2nc(NCc3ccc(S(C)(=N)=O)cc3)c(=O)n([C@@H](C)C(F)(F)F)c2n1 (single isomer, unassigned) [Example 99b] |
| 270 | <24 | CCS(=N)(=O)c1ccc(CNc2nc3c(C)nc(-c4c(C)ncnc4C4CC4)nc3n([C@@H](C)C3CC3)c2=O)nc1 (single isomer, unassigned) [Example 42a] |
| 230 | 41 | COc1ncnc(C2CC2)c1-c1nc(C)c2nc(NCc3ccc(S(C)(=N)=O)cc3)c(=O)n([C@@H](C)C(F)(F)F)c2n1 (single isomer, unassigned) [Example 99a] |
| 400 | <24 | Cc1ncnc(C2CC2)c1-c1nc(C)c2nc(NCc3ccc(S(C)(=N)=O)cn3)c(=O)n([C@@H](C)C3CC3)c2n1 (single isomer, unassigned) [Example 43b] |
